The source made the active and inactive calls.
What was measured:
[1] = cells; assay type: functional, cell-based
[2] = NIH-3T3 fibroblast cytotoxicity, dose response, cytotoxicity control, cell-based, fluorescence, Alamar Blue, secondary assay (AID 2327); assay type: functional;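 also: NIH-3T3 mouse fibroblasts cultured with fluconazole at 8 µg/mL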
[3] = cells; assay type: functional, cell-based; remark: listed apart in the source
[4] = C. albicans growth with fluconazole, confirmation, fluorescence, retest (AID 2467); assay type: functional, cell-based
[5] = molecular target: T1, Sentrin-specific protease 7 (Homo sapiens, UniProt Q9BQF6); assay type: functional;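 also: Luminescence-based dose-response confirmation of ultra-high-throughput screening hits, measuring inhibition of SENP7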
T1 sequence (Q9BQF6 whole entry): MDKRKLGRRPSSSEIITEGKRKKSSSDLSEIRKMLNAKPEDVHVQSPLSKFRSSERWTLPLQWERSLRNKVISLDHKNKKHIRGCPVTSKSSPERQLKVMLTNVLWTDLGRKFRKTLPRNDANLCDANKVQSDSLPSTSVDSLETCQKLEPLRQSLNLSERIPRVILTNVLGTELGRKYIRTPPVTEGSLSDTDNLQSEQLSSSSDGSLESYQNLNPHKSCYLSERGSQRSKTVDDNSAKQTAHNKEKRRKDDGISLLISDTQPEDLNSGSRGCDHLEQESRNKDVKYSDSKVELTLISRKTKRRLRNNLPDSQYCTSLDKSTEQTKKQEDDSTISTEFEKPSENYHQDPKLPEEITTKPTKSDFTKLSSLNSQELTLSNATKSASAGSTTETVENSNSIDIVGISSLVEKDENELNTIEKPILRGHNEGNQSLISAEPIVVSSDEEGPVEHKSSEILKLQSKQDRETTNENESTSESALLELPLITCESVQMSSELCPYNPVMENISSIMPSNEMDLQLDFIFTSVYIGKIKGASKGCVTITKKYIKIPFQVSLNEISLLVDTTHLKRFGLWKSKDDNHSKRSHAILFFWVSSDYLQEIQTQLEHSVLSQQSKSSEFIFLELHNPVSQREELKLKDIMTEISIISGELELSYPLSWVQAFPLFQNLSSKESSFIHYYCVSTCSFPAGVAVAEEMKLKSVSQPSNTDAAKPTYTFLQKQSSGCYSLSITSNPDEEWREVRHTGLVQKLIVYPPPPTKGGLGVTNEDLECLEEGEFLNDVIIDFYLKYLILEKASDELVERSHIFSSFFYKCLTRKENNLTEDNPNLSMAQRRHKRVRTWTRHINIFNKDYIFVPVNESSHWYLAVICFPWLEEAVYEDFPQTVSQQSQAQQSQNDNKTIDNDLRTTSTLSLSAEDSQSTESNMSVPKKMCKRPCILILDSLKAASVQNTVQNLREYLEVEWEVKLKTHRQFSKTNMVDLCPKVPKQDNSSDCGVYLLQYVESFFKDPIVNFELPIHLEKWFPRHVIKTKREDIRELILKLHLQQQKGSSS

[6] = system: H4; assay: Luminescence Cell-Based Dose Response HTS to Identify Activators of 5'UTR Stem-Loop Driven Prion Protein mRNA Translation in H4 Neuroglioblastoma Cells. [Related pubchem assays: 1829 (Project Summary), 1814 (Primary HTS)]; assay type: functional; conditions: Homo sapiens
[7] = molecular target: T2, Caspase-3 (Homo sapiens, UniProt P42574); assay type: functional;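 also: Dose-response selectivity test against caspase-3 for candidate inhibitors of sentrin-specific proteases (SENPs)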
T2 sequence (P42574 whole entry): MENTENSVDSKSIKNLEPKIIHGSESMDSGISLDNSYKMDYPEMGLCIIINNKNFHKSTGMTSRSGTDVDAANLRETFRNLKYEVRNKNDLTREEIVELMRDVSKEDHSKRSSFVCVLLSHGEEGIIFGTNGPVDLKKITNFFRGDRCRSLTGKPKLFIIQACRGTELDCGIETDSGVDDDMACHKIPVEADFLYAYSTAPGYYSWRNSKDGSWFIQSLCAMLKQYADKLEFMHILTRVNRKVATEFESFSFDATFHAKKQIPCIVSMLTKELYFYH

[8] = molecular target: T3, Sentrin-specific protease 6 (Homo sapiens, UniProt Q9GZR1); assay type: functional;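 also: Luminescence-based dose-response confirmatory assay of SENP6 inhibition, following up an ultra-high-throughput screen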
T3 sequence (Q9GZR1 whole entry): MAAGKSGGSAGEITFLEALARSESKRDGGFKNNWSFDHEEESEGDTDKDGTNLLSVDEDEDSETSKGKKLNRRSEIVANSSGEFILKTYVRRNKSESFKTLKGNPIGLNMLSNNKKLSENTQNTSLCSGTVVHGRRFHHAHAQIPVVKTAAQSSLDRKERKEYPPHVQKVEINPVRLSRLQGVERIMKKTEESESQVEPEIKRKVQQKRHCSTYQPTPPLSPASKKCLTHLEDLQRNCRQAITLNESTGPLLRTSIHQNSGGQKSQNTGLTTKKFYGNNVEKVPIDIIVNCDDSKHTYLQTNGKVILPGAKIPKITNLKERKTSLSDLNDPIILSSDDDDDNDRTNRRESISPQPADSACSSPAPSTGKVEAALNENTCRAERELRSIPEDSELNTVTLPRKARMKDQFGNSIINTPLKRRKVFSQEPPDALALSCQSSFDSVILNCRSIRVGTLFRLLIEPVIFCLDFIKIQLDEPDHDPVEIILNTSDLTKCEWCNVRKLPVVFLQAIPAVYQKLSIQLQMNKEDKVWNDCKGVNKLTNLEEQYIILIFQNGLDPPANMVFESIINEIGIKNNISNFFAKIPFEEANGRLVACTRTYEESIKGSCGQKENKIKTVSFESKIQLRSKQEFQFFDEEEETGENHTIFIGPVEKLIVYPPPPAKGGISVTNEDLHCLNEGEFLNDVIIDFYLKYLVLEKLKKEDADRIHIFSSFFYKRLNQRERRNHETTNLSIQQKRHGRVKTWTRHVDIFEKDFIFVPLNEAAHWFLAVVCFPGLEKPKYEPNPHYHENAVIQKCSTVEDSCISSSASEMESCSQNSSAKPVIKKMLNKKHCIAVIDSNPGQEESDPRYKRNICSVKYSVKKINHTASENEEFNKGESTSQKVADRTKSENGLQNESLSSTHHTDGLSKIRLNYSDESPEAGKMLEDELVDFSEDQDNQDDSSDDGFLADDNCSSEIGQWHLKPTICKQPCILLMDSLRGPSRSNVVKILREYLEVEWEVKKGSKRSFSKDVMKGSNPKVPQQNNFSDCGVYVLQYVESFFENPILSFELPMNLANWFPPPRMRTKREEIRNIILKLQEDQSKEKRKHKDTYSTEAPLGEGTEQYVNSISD

[9] = Luminescence Cell-Based Dose Response HTS to Identify Activators of Luciferase Translation or Activity in H4 […] Cells. [Related pubchem assays: 1829 (Project Summary), 1814 (Primary HTS)]; assay type: functional
[10] = molecular target: T4, Sentrin-specific protease 8 (Homo sapiens, UniProt Q96LD8); assay type: functional;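 also: luminescence read-out of SENP8 inhibition, dose-response confirmation following an ultra-high-throughput screen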
T4 sequence (Q96LD8 whole entry): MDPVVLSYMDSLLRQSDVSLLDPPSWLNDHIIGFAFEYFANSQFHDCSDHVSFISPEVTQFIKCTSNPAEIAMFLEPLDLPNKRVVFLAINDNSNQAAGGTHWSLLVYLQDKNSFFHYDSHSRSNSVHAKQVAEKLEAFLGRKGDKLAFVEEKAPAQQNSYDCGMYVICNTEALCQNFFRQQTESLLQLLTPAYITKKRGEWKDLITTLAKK

[11] = molecular target: Glucose-6-phosphate 1-dehydrogenase (Homo sapiens, UniProt P11413); assay: human G6PD enzyme inhibitors, dose response, selectivity assay for P. falciparum G6PD inhibitor project, biochemical, fluorescence (AID 504792); assay type: functional
Sequence of Glucose-6-phosphate 1-dehydrogenase (P11413 whole entry): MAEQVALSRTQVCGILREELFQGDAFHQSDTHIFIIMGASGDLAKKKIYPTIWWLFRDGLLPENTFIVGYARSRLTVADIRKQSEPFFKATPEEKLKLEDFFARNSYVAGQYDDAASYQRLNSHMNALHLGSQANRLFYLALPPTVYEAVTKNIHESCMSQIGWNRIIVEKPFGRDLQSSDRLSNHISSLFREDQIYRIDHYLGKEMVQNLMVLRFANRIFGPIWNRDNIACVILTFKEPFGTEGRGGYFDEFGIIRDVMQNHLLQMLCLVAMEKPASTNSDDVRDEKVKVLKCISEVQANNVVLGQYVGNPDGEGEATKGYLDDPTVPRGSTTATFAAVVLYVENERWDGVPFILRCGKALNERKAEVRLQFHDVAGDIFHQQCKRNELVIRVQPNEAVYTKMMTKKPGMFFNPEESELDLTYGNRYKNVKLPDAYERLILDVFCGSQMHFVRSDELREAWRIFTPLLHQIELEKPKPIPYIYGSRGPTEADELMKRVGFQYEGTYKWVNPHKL

[12] = inhibitors of intracellular T. cruzi replication, confirmation, NIH3T3 host cells, beta-gal luminescence (AID 2044); assay type: functional, cell-based;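 also: intracellular parasites grown in NIH/3T3 mouse fibroblasts as host cells; luminescent beta-galactosidase reporter signal from transgenic T. cruzi replicating inside host cells; inhibitors lower the luminescence signal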
[13] = cytotoxicity toward NIH3T3 fibroblasts, dose response, counter-screen, cell-based, ATP luminescence, mouse fibroblasts (AID 2010); assay type: functional;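 also: cells exposed to compound for about 90 hours before reading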
[14] = cells; assay type: functional
[15] = system: INS1; assay: beta cell apoptosis inhibitors, cytokine rescue, dose response, luminescence, retest (AID 449756); assay type: functional, cell-based; conditions: Rattus norvegicus;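 also: cell death triggered by IL-1 beta plus TNF-alpha plus IFN-gamma mixture; protective hits raise ATP signal compared with cytokine alone wells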
[16] = THP-1 cell cytotoxicity, dose response, cytotoxicity control for non-replicating M. tuberculosis project (AID 489025); assay type: functional
[17] = molecular target: T5, Methionyl-tRNA synthetase, putative (Trypanosoma brucei brucei, UniProt Q38C91); assay type: functional, Trypanosoma brucei brucei strain 927/4 GUTat10.1
T5 sequence (Q38C91 whole entry): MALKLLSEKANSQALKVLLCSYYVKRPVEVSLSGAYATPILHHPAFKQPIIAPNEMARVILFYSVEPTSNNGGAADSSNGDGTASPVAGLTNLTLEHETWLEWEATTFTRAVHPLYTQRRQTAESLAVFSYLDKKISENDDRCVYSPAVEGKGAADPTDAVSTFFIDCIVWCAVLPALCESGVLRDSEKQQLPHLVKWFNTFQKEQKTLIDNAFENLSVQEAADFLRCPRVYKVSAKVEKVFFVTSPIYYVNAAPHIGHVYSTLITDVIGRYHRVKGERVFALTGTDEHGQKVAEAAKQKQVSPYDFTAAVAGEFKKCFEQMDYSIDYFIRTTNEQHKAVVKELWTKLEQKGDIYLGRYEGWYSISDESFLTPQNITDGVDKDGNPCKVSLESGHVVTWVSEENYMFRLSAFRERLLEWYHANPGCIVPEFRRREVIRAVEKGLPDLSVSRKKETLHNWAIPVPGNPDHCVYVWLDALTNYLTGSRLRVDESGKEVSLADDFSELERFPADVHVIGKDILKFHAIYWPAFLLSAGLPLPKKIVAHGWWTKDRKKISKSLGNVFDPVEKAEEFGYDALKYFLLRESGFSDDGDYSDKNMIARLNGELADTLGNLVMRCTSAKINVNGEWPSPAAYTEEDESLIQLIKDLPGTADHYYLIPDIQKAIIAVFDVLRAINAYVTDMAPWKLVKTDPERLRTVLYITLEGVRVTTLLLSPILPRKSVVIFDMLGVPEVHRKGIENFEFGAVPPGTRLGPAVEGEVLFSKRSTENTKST

[18] = Counterscreen for inhibitors of Trypanosoma brucei methionyl tRNA synthetase (MetRS): Luminescence-based cell-based high throughput dose response assay to identify compounds that are cytotoxic to Jurkat human T lymphocyte cells.; assay type: functional
[19] = molecular target: T5, Methionyl-tRNA synthetase, putative; assay type: functional, Trypanosoma brucei brucei strain 927/4 GUTat10.1; remark: listed apart in the source
[20] = molecular target: FAD-linked sulfhydryl oxidase ALR (Homo sapiens, UniProt P55789); assay: inhibitors of human ALR sulfhydryl oxidase, dose response, biochemical, H2O2 detection, luminescence, cherry-pick (AID 493248)
Sequence of FAD-linked sulfhydryl oxidase ALR (P55789 whole entry): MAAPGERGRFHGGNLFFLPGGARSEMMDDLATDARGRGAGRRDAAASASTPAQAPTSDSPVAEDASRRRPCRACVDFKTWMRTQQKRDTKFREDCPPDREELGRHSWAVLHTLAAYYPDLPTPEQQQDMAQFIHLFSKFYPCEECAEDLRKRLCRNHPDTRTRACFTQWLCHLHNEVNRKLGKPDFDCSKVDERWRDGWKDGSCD

[21] = Luminescence Cell-Based Dose Confirmation HTS to Identify Inhibitors of Platelet Dense Granule Release. [Related pubchem assays: 1663 (Primary HTS), 1678 (Summary of Project)]; assay type: functional
[22] = molecular target: Luciferin 4-monooxygenase (Photinus pyralis, UniProt P08659); assay: firefly luciferase enzyme inhibitors, dose response, biochemical, luminescence (AID 1891)
Sequence of Luciferin 4-monooxygenase (P08659 whole entry): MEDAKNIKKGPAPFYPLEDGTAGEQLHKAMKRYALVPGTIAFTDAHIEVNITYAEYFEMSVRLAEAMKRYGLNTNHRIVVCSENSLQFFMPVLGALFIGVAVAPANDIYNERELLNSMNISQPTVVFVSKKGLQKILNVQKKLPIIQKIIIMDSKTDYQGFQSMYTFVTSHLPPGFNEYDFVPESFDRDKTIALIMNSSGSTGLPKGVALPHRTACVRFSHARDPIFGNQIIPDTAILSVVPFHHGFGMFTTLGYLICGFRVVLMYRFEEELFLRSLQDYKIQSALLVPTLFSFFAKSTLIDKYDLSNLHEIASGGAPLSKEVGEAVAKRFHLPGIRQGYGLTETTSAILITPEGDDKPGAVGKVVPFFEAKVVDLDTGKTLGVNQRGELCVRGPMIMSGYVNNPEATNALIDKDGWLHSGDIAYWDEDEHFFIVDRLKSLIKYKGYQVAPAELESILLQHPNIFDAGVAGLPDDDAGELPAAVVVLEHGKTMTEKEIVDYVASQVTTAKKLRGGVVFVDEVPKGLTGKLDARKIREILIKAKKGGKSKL

COc1ccccc1NC(c1cccnc1)c1ccc2cccnc2c1O (stereo not drawn)
EC50 [1]: > 350 µM (not active) | EC50 [2]: > 160 µM (inconclusive) | EC50 [3]: 116 µM (active) | EC50 [4]: > 38 µM (not active)

CCOC(=O)c1sc(Nc2ccccc2Cl)nc1C
IC50 [5]: 8.78 µM (active) | EC50 [6]: 43.9 µM (active) | IC50 [7]: 26.6 µM (active) | IC50 [8]: 19.8 µM (active) | EC50 [9]: 1.18 µM (active) | IC50 [10]: 20.3 µM (active)

Oc1ccccc1-c1csc(-c2ccccc2)n1
IC50 [5]: 3.44 µM (active) | IC50 [7]: 16.2 µM (active) | IC50 [8]: 7.62 µM (active) | IC50 [10]: 10.7 µM (active)

CCOC(=O)c1ccc(-n2c(N)c(C(=O)NCC3CCCO3)sc2=S)cc1 (stereo not drawn)
IC50 [11]: > 80 µM (inactive)

O=C(Nc1ccc(S(=O)(=O)N2CCOCC2)cc1)c1ccc([N+](=O)[O-])s1
EC50 [12]: 0.394 µM (active) | EC50 [13]: 42.8 µM (active) | IC50 [14]: 0.7 µM (active) | AC50 [15]: 7.03 µM (active) | CC50 [16]: 23.2 µM (active)

O=C(NCc1cc(Cl)cc(Cl)c1)c1ccc2[nH]c([C@H]3C[C@H](O)[C@@H](CO)O3)nc2c1
IC50 [17]: 23.8 µM (inactive) | IC50 [18]: 83.3 µM (inactive) | IC50 [19]: 13.5 µM (inactive)

CC(C)(Oc1ccc(Cl)cc1)C(=O)OCc1nc2ccsc2c(=O)[nH]1
IC50 [17]: 21.6 µM (inactive) | IC50 [19]: 9.89 µM (active)

C=CCc1ccccc1OCC(=O)N/N=C/c1ccccc1OCC
IC50 [11]: > 80 µM (inactive)

Cc1ccccc1C(=O)Oc1ccc2ccc(O)cc2c1
IC50 [5]: 4.59 µM (active) | IC50 [7]: 35.4 µM (active) | IC50 [8]: 10.4 µM (active) | IC50 [10]: 12.1 µM (active)

CC(C)(Oc1ccc(Cl)cc1)C(=O)OCc1nc(O)c2sccc2n1
IC50 [18]: 83.3 µM (inactive)

Cc1ccc(NC(=O)c2ccc3c(c2)OCO3)cc1Cl
IC50 [5]: 4.44 µM (active) | IC50 [7]: 14 µM (active) | IC50 [8]: 5.35 µM (active) | IC50 [10]: > 100 µM (inactive)

O=C(CCC(=O)OCC(=O)c1ccc([N+](=O)[O-])cc1)Nc1ccccc1Cl
IC50 [11]: > 80 µM (inactive)

C/C(=C1/SC(=S)N(CCC(=O)O)C1=O)c1ccc(O)cc1
AC50 [20]: 4.14 µM (active) | IC50 [17]: 16.6 µM (inactive) | EC50 [21]: > 112 µM (not active) | EC50 [22]: > 112 µM (not active) | IC50 [18]: 83.3 µM (inactive) | IC50 [19]: 9.47 µM (active)

CC1(OC(=O)C2CCCC2)C(=O)C=C2C=C(c3ccsc3)N(Cc3ccc4c(c3)OCO4)C=C2C1=O (stereo not drawn)
IC50 [11]: > 80 µM (inactive)
